From paper PMC5766618, “Paper-based inkjet bioprinting to detect fluorescence resonance energy transfer for the assessment of anti-inflammatory activity” (Scientific Reports, 2018)

Target: cAMP-specific 3′,5′-cyclic phosphodiesterase 4B (PDE4B) (Homo sapiens, UniProt Q07343)
Sequence (Q07343 whole entry): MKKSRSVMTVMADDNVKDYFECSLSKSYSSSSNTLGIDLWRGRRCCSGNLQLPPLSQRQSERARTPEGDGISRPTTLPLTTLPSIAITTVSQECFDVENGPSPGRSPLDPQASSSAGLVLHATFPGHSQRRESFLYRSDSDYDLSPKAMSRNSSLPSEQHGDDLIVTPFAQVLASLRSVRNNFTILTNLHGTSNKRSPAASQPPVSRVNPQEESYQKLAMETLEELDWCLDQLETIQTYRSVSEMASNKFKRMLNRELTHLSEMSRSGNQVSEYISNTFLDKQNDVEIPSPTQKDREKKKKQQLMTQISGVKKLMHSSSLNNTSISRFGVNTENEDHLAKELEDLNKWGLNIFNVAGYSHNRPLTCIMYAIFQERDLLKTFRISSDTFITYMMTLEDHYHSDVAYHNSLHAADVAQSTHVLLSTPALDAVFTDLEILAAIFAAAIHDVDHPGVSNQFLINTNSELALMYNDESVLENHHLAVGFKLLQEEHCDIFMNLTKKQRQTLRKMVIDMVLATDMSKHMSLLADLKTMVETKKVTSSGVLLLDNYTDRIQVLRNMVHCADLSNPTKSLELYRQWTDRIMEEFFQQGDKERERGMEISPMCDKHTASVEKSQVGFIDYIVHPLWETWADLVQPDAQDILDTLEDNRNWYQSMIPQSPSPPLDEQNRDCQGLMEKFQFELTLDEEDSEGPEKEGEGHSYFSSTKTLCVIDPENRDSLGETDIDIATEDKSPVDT

COc1ccc(C2CNC(=O)C2)cc1OC1CCCC1 (stereo not shown) [roliparm]
inkjet-printed paper-based competitive FRET cAMP assay of PDE4B inhibition (IM50): 2.46e-13 mol
